Laboratory results reported in patent US20120302636A1, “METHOD OF TREATING A DISORDER ASSOCIATED WITH MTP” (priority 2009, published 2012).

Key:
[1] = Example 9: caloric/food intake and appetite; type: in vivo, human; details: 3.5 mg BID, Day 10/11
Experimental: (§1) The study enrolled 16 obese male subjects (18-65 years of age (inclusive), with a body mass index (BMI) >30.0 kg/m^2 and <40.0 kg/m^2) who participated in two treatment periods. During Period 1, 8 subjects were randomized to receive 3.5 mg of the compound of formula (I), and 8 subjects were randomized to receive placebo. The compound of formula (I) or placebo was administered twice daily (BID), 30 minutes after the start of breakfast and dinner, for 10 days. All subjects were discharged from the clinic at the end of Period 1 for a 9±2 day discharge period. Subjects then returned for treatment during Period 2, in which (i) the group previously receiving the compound of formula (I) now received placebo, and (ii) the group previously receiving placebo now received the compound of formula (I), in accordance with the protocol described above.
A secondary objective of this study was to examine the effects on caloric/food intake and appetite. Therefore, other secondary PD endpoints in this study included caloric intake and meal weight consumed on Day 10 of each period, as well as visual analog scale (VAS) assessments of hunger, prospective consumption, and fullness on Day 10/11 of each period. VAS assessments of thirst and nausea on Day 10/11 of each period were part of the exploratory analysis.

[2] = Example 3: repeated dose study of tablets 1 or 2 mg BID, safety
Experimental: The subjects were divided into two dosing groups and within each dosing group, the subjects were divided as follows: 6 subjects received the compound of formula (I) and 3 subjects received placebo.
For the determination of plasma concentrations of the compound of formula (I) and metabolite M1 in this study, the bioanalytical method achieved a sensitivity (LLOQ) of 0.3 ng/mL. Adverse event (AE) information was collected from each subject.

[3] = Example 5: fixed-dose or escalating doses, safety; type: in vivo, human
Experimental: Fifty-two Japanese patients with hyperlipidemia (LDL-C between 140 and 220 mg/dL; TG≦400 mg/dL) participated in the study. […] One group received a fixed dose of 2 mg per tablet through the entire study. The other group received escalating doses of 0.5 mg (weeks 1-4), 1 mg (weeks 5-8), and 2 mg (weeks 9-12). For the efficacy analysis, 50 subjects were observed (25 in the fixed-dose group and 25 in the dose escalation group).
The objective of this study was preliminary evaluation of the efficacy (based on serum lipid levels), safety, and pharmacokinetics of the compound of formula (I) administered orally twice daily after breakfast and supper for 12 weeks as a fixed dose (4 mg/day) or escalating dose (1 mg/day, 2 mg/day and 4 mg/day) regimen in patients with hyperlipidemia.

[4] = Example 4: 8-week study in hyperlipidemia, safety; type: in vivo, human
Experimental: One hundred five Japanese patients with hyperlipidemia (LDL-C between 140 and 220 mg/dL; TG≦400 mg/dL) participated in the study. […] For the efficacy analysis, 95 subjects were observed (0.5 mg BID: 25 subjects, 1 mg BID: 24 subjects, 2 mg BID: 22 subjects, 4 mg BID: 24 subjects).

[5] = test system: gut hormone (GLP-1 active, PYY total, GIP total) levels; test: Example 9: gut hormone levels in obese male subjects; type: in vivo, human; details: for increase in GLP-1 active compared with placebo / increase in PYY total compared with placebo: 4 hours after dinner
Experimental: as §1
The primary objective of this study was to examine the change in gut hormone levels. The co-primary endpoints were trough gut hormone (glucagon-like peptide 1 (GLP-1) active, peptide tyrosine tyrosine (PYY) total, and gastric inhibitory polypeptide (GIP) total) levels on Day 10 in each treatment period and the trough gut hormone profile throughout the study. On Day 10 of each treatment period, statistically significant mean increases in GLP-1 active (60%) and PYY total (43%) were observed during administration of the compound of formula (I) compared with placebo, whereas no change in GIP total relative to placebo was found.

## CCOC(=O)C(COC(=O)Cc1ccc(NC(=O)c2ccccc2-c2ccc(C(F)(F)F)cc2)c(C(=O)N(C)C)c1)(C(=O)OCC)c1ccccc1 [compound of formula (I), diethyl 2-((2-(3-(dimethylcarbamoyl)-4-(4′-(trifiuoromethyl)biphenyl-2-ylcarboxamido)phenyl)acetoxy)methyl)-2-phenyl malonate]
[1]
  caloric intake, meal weight consumed, VAS of hunger, prospective consumption, fullness, thirst, nausea: no statistically significant treatment differences
[2]; 1 mg BID
  subjects with adverse events (incidence): 66.7%
[2]; 2 mg BID
  subjects with adverse events (incidence): 50.0%
[2]; 1 and 2 mg BID
  fat-soluble vitamins (vitamin A, 25-OH vitamin D, and vitamin E): no decrease
  severity of all adverse events: mild
[2]; 1 or 2 mg BID tablets, 14 days
  death or serious adverse events: No death or other serious adverse events occurred
[2]; active group, 12 subjects
  subjects with adverse events (incidence): 58.3%
[2]; overall compound group
  incidence of diarrhea: 25.0%
  incidence of gastrointestinal disorders (SOC): 41.7%
  incidence of investigations (SOC): 33.3%
  incidence of loose stools: 25.0%
[2]; twice daily for 14 days, tablets
  tolerable dose: up to 2 mg
[3]; dose escalation group
  events of gastrointestinal disorders: 14
  events of infections and infestations: 6
  events of laboratory test: 11
  incidence of gastrointestinal disorders (SOC): 34.6%
  incidence of infections and infestations (SOC): 19.2%
  incidence of laboratory test (SOC): 23.1%
  incidence of moderate adverse events: 15.4%
  number of adverse events: 37
  subjects with adverse events (incidence): 65.4%
  subjects with moderate diarrhea: three
[3]; dose escalation group, Weeks 9 to 12 (4 mg/day)
  incidence of gastrointestinal disorders: 20.0%
[3]; fixed-dose group
  events of gastrointestinal disorders: 25
  events of infections and infestations: four
  events of laboratory test: nine
  incidence of gastrointestinal disorders (SOC): 50.0%
  incidence of infections and infestations (SOC): 15.4%
  incidence of laboratory test (SOC): 23.1%
  incidence of moderate adverse events: 15.4%
  number of adverse events: 45
  subjects with adverse events (incidence): 65.4%
  subjects with moderate diarrhea: four
[3]; fixed-dose group, Weeks 1 to 4 (4 mg/day)
  incidence of gastrointestinal disorders: 46.2%
[3]; in vivo
  systolic and diastolic blood pressure, pulse rate, body temperature, body weight, ultrasonography: No clinically relevant abnormal changes
[3]; tablets BID, 12 weeks
  death or serious adverse events: No death or other serious adverse events occurred
[4]; 0.5 mg BID
  incidence of moderate diarrhea: 8.0%
  number of adverse events: 20
  number of moderate diarrhea events: 2
  subjects with adverse events (incidence): 44.0%
[4]; 1 mg BID
  incidence of diarrhea: 15.9%
  incidence of moderate diarrhea: 0.0%
  number of adverse events: 60
  number of diarrhea events: 6
  number of moderate diarrhea events: 0
  subjects with adverse events (incidence): 75.0%
[4]; 2 mg BID
  incidence of diarrhea: 24.0%
  incidence of moderate diarrhea: 12.0%
  number of adverse events: 51
  number of diarrhea events: 12
  number of moderate diarrhea events: 4
  subjects with adverse events (incidence): 80.0%
[4]; 4 mg BID
  incidence of diarrhea: 40.7%
  incidence of moderate diarrhea: 29.6%
  number of adverse events: 82
  number of diarrhea events: 21
  number of moderate diarrhea events: 13
  subjects with adverse events (incidence): 85.2%
[4]; 0.5-4 mg BID capsules, 8 weeks
  death or serious adverse events: neither death nor other serious adverse events occurred
[4]; 105 subjects
  events of gastrointestinal disorders: 117
  events of infections and infestations: 11
  events of investigations: 49
  events of metabolism and nutrition disorders: 7
  events of musculoskeletal, and connective tissue disorders: 7
  incidence of gastrointestinal disorders (SOC): 47.6%
  incidence of infections and infestations (SOC): 9.5%
  incidence of investigations (SOC): 31.4%
  incidence of metabolism and nutrition disorders (SOC): 6.7%
  incidence of moderate adverse events: 18.1%
  incidence of musculoskeletal, and connective tissue disorders (SOC): 6.7%
  laboratory abnormality ALT, subjects: 5.7%
  laboratory abnormality CPK, subjects: 6.7%
  laboratory abnormality CRP, subjects: 3.8%
  laboratory abnormality IP, subjects: 2.9%
  laboratory abnormality γ-GTP, subjects: 3.8%
  number of moderate adverse events: Twenty-six
[4]; all 105 subjects
  number of adverse events: 213
  subjects with adverse events (incidence): 71.45%
[4]; in vivo
  fat-soluble vitamins (vitamin A, 25-OH vitamin D, and vitamin E): no clinically significant changes
[4]; of 105 subjects
  subjects withdrawn from the study treatment because of adverse events: four
[5]; 3.5 mg BID, Day 10
  mean increase in trough GLP-1 active compared with placebo: 60%
  mean increase in trough PYY total compared with placebo: 43%
  trough GIP total relative to placebo: no change
[5]; Day 2
  increase in GLP-1 active compared with placebo: 38%
  increase in PYY total compared with placebo: 44%
[5]; Day 9
  increase in GLP-1 active compared with placebo: 71%
  increase in PYY total compared with placebo: 42%
  average increase in GLP-1 active around breakfast: 38%
  average increase in PYY total around breakfast: 51%
[5]; 4 hours post-dinner, Day 2 and Day 9
  GIP total relative to placebo: No statistically significant differences
[5]; Day 2, -0.5 to 3.5 hours relative to dosing
  gut hormone AUC profiles around breakfast: no significant changes
[5]; Day 2 or Day 9
  GIP total profile: No significant changes
[5]; Day 9, around breakfast
  decrease in AUC for GIP total compared with placebo: 17%
  increase in AUC for GLP-1 active compared with placebo: 31%
  increase in AUC for PYY total compared with placebo: 39%
[5]; days 2 through 11
  average increase in trough PYY total: 63%
[5]; days 3, 5 and 11
  average increase in trough GIP total: 24%
[5]; days 3 through 11
  average increase in trough GLP-1 active: 45%
